The source of these data is patent publication US10407428B2, “Spiro-isoquinoline-1,4′-piperidine compounds having multimodal activity against pain” (ESTEVE PHARMACEUTICALS, S.A., priority 2014, dated 2019).

The test system of one assay is human σ1 receptor and human μ-opioid receptor. The assay is described as follows: Human σ1 receptor radioligand assay and human μ-opioid receptor radioligand assay (μ and σ1 dual binding). On the set-up: key to μ and σ1 dual binding: +: Both Ki-μ and Ki-σ1>=500 nM; ++: One Ki<500 nM while the other Ki is >=500 nM; +++: Both Ki-μ and Ki-σ1<500 nM; ++++: Both Ki-μ and Ki-σ1<100 nM.
Conditions: not given
On to `CCN(CC(C)C)C(=O)CN1CCC2(CC1)c1ccccc1CCN2C` [Example 104, N-ethyl-N-isobutyl-2-(2-methyl-3,4-dihydro-2H-spiro[isoquinoline-1,4′-piperidine]-1′-yl)acetamide], for which the “μ and σ1 dual binding” value is “++”.

`CCOCCN1CCC2(CC1)c1ccccc1CCN2C(C)=O` [Example 24, 1-(1′-(2-ethoxyethyl)-3,4-dihydro-2H-spiro[isoquinoline-1,4′-piperidine]-2-yl)ethanone]: the “μ and σ1 dual binding” value is reported as “++”.

One may read the Ki as the dissociation constant of the complex between target and ligand, obtained from inhibition or displacement. Consider `CN1CCc2ccccc2C12CCN(CCc1ccccc1)CC2` [Example 54, 2-methyl-1′-phenethyl-3,4-dihydro-2H-spiro[isoquinoline-1,4′-piperidine]], for which the Ki is under 100 nM.

As to `CN1CCc2ccccc2C12CCN(CC(=O)N1CCC3(CC1)CC3)CC2` [Example 62, 2-(2-methyl-3,4-dihydro-2H-spiro[isoquinoline-1,4′-piperidine]-1′-yl)-1-(6-azaspiro[2.5]octan-6-yl)ethanone], the Ki was under 100 nM.

For the compound `CN1Cc2ccccc2C12CCN(CCc1ccccc1)CC2` [Example 140, 2-Methyl-1′-phenethylspiro[isoindoline-1,4′-piperidine]], the Ki is under 500 nM.

`CN1CCc2ccccc2C12CCN(C[C@@H](O)c1ccncc1)CC2` [Example 100, (S)-2-(2-methyl-3,4-dihydro-2H-spiro[isoquinoline-1,4′-piperidine]-1′-yl)-1-(pyridin-4-yl)ethanol]: the Ki is under 500 nM.

`CN(Cc1ccccc1)C(=O)CN1CCC2(CC1)c1ccccc1CCN2C` [Example 93, N-benzyl-N-methyl-2-(2-methyl-3,4-dihydro-2H-spiro[isoquinoline-1,4′-piperidine]-1′-yl)acetamide] had an inhibitory constant (Ki) of under 100 nM.

For the compound `CN1CCc2ccccc2C12CCN(CC(=O)N1CCOCC1)CC2` [Example 70, 2-(2-methyl-3,4-dihydro-2H-spiro[isoquinoline-1,4′-piperidine]-1′-yl)-1-morpholinoethanone], the Ki is under 500 nM.

Compound `OCCN1CCc2ccccc2C12CCN(CCc1ccncc1F)CC2` [Example 130, 2-(1′-(2-(3-Fluoropyridin-4-yl)ethyl)-3,4-dihydro-2H-spiro[isoquinoline-1,4′-piperidine]-2-yl)ethanol] displayed a Ki of under 500 nM.

In the case of `COCCN(C(=O)CN1CCC2(CC1)c1ccccc1CCN2C)C(C)C` [Example 108, N-isopropyl-N-(2-methoxyethyl)-2-(2-methyl-3,4-dihydro-2H-spiro[isoquinoline-1,4′-piperidine]-1′-yl)acetamide], the “μ and σ1 dual binding” value is recorded as “++”.

`CC1CCN(C(=O)CN2CCC3(CC2)c2ccccc2CCN3C)CC1` [Example 114, 2-(2-Methyl-3,4-dihydro-2H-spiro[isoquinoline-1,4′-piperidine]-1′-yl)-1-(4-methylpiperidin-1-yl)ethanone] registered a Ki of under 500 nM.

Turning to `CN1CCc2ccccc2C12CCN(CC(=O)N1CCC(F)(F)C1)CC2` [Example 92, 1-(3,3-difluoropyrrolidin-1-yl)-2-(2-methyl-3,4-dihydro-2H-spiro[isoquinoline-1,4′-piperidine]-1′-yl)ethanone], the “μ and σ1 dual binding” value is reported as “++”.

Turning to `CN1CCc2ccccc2C12CCN(CCc1ccccn1)CC2` [Example 75, 2-methyl-1′-(2-(pyridin-2-yl)ethyl)-3,4-dihydro-2H-spiro[isoquinoline-1,4′-piperidine]], the Ki is under 500 nM.

In turn, `CCN(CC)C(=O)CN1CCC2(CC1)c1ccccc1CCN2C` [Example 56, N,N-diethyl-2-(2-methyl-3,4-dihydro-2H-spiro[isoquinoline-1,4′-piperidine]-1′-yl)acetamide] gave a Ki of under 500 nM.

For `CC(=O)N1CCc2ccccc2C12CCN(CC1CCOCC1)CC2` [Example 9, 1-(1′-((tetrahydro-2H-pyran-4-yl)methyl)-3,4-dihydro-2H-spiro[isoquinoline-1,4'-piperidine]-2-yl)ethanone], the “μ and σ1 dual binding” value was “++”.

For the compound `CN1CCc2ccccc2C12CCN(CC(O)c1ccccc1)CC2` (stereo not shown) [Example 120, 2-(2-Methyl-3,4-dihydro-2H-spiro[isoquinoline-1,4′-piperidin]-1′-yl)-1-phenyl-ethanol], the Ki is under 500 nM.

As for `CCN(C(=O)CN1CCC2(CC1)c1ccccc1CCN2C)C(C)C` [Example 89, N-ethyl-N-isopropyl-2-(2-methyl-3,4-dihydro-2H-spiro[isoquinoline-1,4′-piperidine]-1′-yl)acetamide], the Ki is under 500 nM.

On to `CN1CCc2ccccc2C12CCN(CCc1ccncc1)CC2` [Example 121, 2-Methyl-1′-(2-(pyridin-4-yl)ethyl)-3,4-dihydro-2H-spiro[isoquinoline-1,4′-piperidine]], for which the Ki is under 500 nM.

For the compound `O=C(CN1CCC2(CC1)c1ccccc1CCN2CCO)N1CCCCC1` [Example 126, 2-(2-(2-Hydroxyethyl)-3,4-dihydro-2H-spiro[isoquinoline-1,4′-piperidine]-1′-yl)-1-(piperidin-1-yl)ethanone], the “μ and σ1 dual binding” value is given as “++”.

Regarding `OCCN1CCc2ccccc2C12CCN(CCc1cncc(C(F)(F)F)c1)CC2` [Example 128, 2-(1′-(2-(5-(trifluoromethyl)pyridin-3-yl)ethyl)-3,4-dihydro-2H-spiro[isoquinoline-1,4′-piperidine]-2-yl)ethanol], the Ki is under 500 nM.

For the compound `COC1CCN(C(=O)CN2CCC3(CC2)c2ccccc2CCN3C)CC1` [Example 60, 1-(4-methoxypiperidin-1-yl)-2-(2-methyl-3,4-dihydro-2H-spiro[isoquinoline-1,4′-piperidine]-1′-yl)ethanone], the “μ and σ1 dual binding” value is reported as “++”.

For the compound `CCCN(C(=O)CN1CCC2(CC1)c1ccccc1CCN2C)C(C)C` [Example 107, N-isopropyl-2-(2-methyl-3,4-dihydro-2H-spiro[isoquinoline-1,4′-piperidine]-1′-yl)-N-propylacetamide], the “μ and σ1 dual binding” value is “++”.

For `CCN(CC)C(=O)CN1CCC2(CC1)c1ccccc1CCN2CC` [Example 155, N,N-diethyl-2-(2-ethyl-3,4-dihydro-2H-spiro[isoquinoline-1,4′-piperidine]-1′-yl)acetamide], the Ki was under 500 nM.

For `CN(C(=O)CCN1CCC2(CC1)c1ccccc1CCN2C)c1ccccc1` [Example 81, N-methyl-3-(2-methyl-3,4-dihydro-2H-spiro[isoquinoline-1,4′-piperidine]-1′-yl)-N-phenylpropanamide], the “μ and σ1 dual binding” value is listed as “++”.

`CCN(C(=O)CN1CCC2(CC1)c1ccccc1CCN2C)C1CC1` [Example 106, N-cyclopropyl-N-ethyl-2-(2-methyl-3,4-dihydro-2H-spiro[isoquinoline-1,4′-piperidine]-1′-yl)acetamide] registered a Ki of under 500 nM.

On to `CC(C)CN(C)C(=O)CN1CCC2(CC1)c1ccccc1CCN2C` [Example 87, N-isobutyl-N-methyl-2-(2-methyl-3,4-dihydro-2H-spiro[isoquinoline-1,4′-piperidine]-1′-yl)acetamide], for which the “μ and σ1 dual binding” value is listed as “++”.

The compound `CN1CCc2cc(O)ccc2C12CCN(CCc1ccccc1)CC2` [Example 131, 2-Methyl-1′-phenethyl-3,4-dihydro-2H-spiro[isoquinoline-1,4′-piperidin]-6-ol] showed a Ki of under 100 nM.

In the case of `CCC(CC)N(C)C(=O)CN1CCC2(CC1)c1ccccc1CCN2CC` [Example 152, 2-(2-ethyl-3,4-dihydro-2H-spiro[isoquinoline-1,4′-piperidine]-1′-yl)-N-methyl-N-(pentan-3-yl)acetamide], the “μ and σ1 dual binding” value is given as “++”.

In the case of `CN(CC1CC1)C(=O)CN1CCC2(CC1)c1ccccc1CCN2C` [Example 112, N-(cyclopropylmethyl)-N-methyl-2-(2-methyl-3,4-dihydro-2H-spiro[isoquinoline-1,4′-piperidine]-1′-yl)acetamide], the Ki is under 500 nM.

Consider `COCCN1CCC2(CC1)c1ccccc1CCN2C` [Example 77, 1′-(2-methoxyethyl)-2-methyl-3,4-dihydro-2H-spiro[isoquinoline-1,4′-piperidine]], for which the “μ and σ1 dual binding” value is “++”.

For the compound `CC(=O)N1CCc2ccccc2C12CCN(Cc1ccccn1)CC2` [Example 17, 1-(1′-(pyridin-2-ylmethyl)-3,4-dihydro-2H-spiro[isoquinoline-1,4′-piperidine]-2-yl)ethanone], the “μ and σ1 dual binding” value is on record as “++”.

Still in this assay, the particulars now being: combined class for Ki-μ ([3H]-DAMGO, CHO-K1 membranes) and Ki-σ1 ([3H](+)-pentazocine, HEK-293 membranes).
As for `C[C@@H]1CN(C(=O)CN2CCC3(CC2)c2ccccc2CCN3C)C[C@H](C)O1` [Example 115, 1-((2S,6R)-2,6-dimethylmorpholino)-2-(2-methyl-3,4-dihydro-2H-spiro[isoquinoline-1,4′-piperidine]-1′-yl)ethanone], the Ki is at least 500 nM.

Turning to `CC(=O)N1CCc2ccccc2C12CCN(CCN(C)C(=O)OC(C)(C)C)CC2` [Example 46, tert-Butyl 2-(2-acetyl-3,4-dihydro-2H-spiro[isoquinoline-1,4′-piperidine]-1′-yl)ethyl(methyl)carbamate], the Ki is at least 500 nM.

Regarding `CNCCN1CCC2(CC1)c1ccccc1CCN2C(C)=O` [Example 47, 1-(1′-(2-(Methylamino)ethyl)-3,4-dihydro-2H-spiro[isoquinoline-1,4′-piperidine]-2-yl)ethanone], the Ki is at least 500 nM.

Turning to `CC(=O)N1CCc2ccccc2C12CCN(CC1CC1)CC2` [Example 33, 1-(1′-(Cyclopropylmethyl)-3,4-dihydro-2H-spiro[isoquinoline-1,4′-piperidine]-2-yl)ethanone], the Ki was at least 500 nM.

For the compound `COCCN1CCc2ccccc2C12CCN(CCc1cccnc1)CC2` [Example 124, 2-(2-Methoxyethyl)-1′-(2-(pyridin-3-yl)ethyl)-3,4-dihydro-2H-spiro[isoquinoline-1,4′-piperidine]], the Ki is at least 500 nM.

For `CC(=O)Oc1ccc2c(c1)CCN(C(C)=O)C21CCN(CCc2ccccc2)CC1` [Example 49, 2-Acetyl-1′-phenethyl-3,4-dihydro-2H-spiro[isoquinoline-1,4′-piperidine]-6-yl acetate], the Ki was at least 500 nM.
